{"source": "patent US6692443B2", "about": "“Systems and methods for investigating blood flow” (New Health Sciences, Inc., priority 2000, dated 2004)", "tested_on": "cerebral vessels", "description": "A person with a history of hypertension experiences a first stroke in the left middle cerebral artery resulting in deficits in the right hand, leg, and some deficits in motor speech. These are the symptoms upon presentation in the neurological clinic. Transcranial Doppler analysis of all cerebral vessels is performed in addition to analyzing the common carotid artery and the internal carotid artery.\nThe physician considers prescription of Plavix together with a calcium channel blocker. Transcranial Doppler analysis was performed at monthly intervals. […] The physician subsequently administers a higher dose. Again, transcranial Doppler analysis is performed on all cerebral vessels.", "data": [{"smiles": "COC(=O)[C@H](c1ccccc1Cl)N1CCc2sccc2C1", "note": "[Plavix]", "values": [{"measurement": "changes in the individual cerebral vessels (transcranial Doppler)", "setting": "person after first stroke, Plavix +/− calcium channel blocker, initial dose, analysis at monthly intervals", "result": "no effect on the cerebral vessels"}, {"measurement": "auto-regulation curve (transcranial Doppler)", "setting": "same patient, higher dose", "result": "left-shifts toward normal"}, {"measurement": "pulsatility index of the vessel studied (transcranial Doppler)", "setting": "same patient, higher dose", "result": "decreases"}]}]}
